Patent US12559506B2, “Indazole based compounds and associated methods of use” (Arvinas Operations, Inc., priority 2021, dated 2026)
Where two headings read alike, the source gives them in different places.

Molecular target: T1, LRRK2 (endogenous, HiBit tagged) (Homo sapiens, UniProt Q5S007)
T1 construct: endogenous in cells; host or cells: HEK293 cells with HiBit knock-in at the endogenous LRRK2 locus, stably expressing firefly luciferase
Experiment: Endogenous LRRK2 degradation assay, endogenous gene C-terminally HiBit-tagged in HEK293 cells (Nano-Glo Dual Luciferase)
Format: cell-based
Conditions: endogenous HiBit-tagged LRRK2 in HEK293 cells
Procedure, shortened: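 LRRK2-HiBit quantified via Nano-Glo Dual Luciferase in HEK293 knock-in cells co-expressing firefly luciferase, after 24 h exposure to compound (1 μM final top, 1:3, 11 points). Values normalised to DMSO median per plate and curve-fitted; Alamar Blue viability run alongside.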

[1] = 24 hours treatment, read-out: **Endogenous WT Dmax (%)
[2] = 24 hours treatment, read-out: *Endogenous WT DC50
[3] = 24 hours treatment, read-out: Endogenous WT DC50
[4] = 24 hours treatment, read-out: Endogenous WT Dmax

T1 sequence (Q5S007 whole entry): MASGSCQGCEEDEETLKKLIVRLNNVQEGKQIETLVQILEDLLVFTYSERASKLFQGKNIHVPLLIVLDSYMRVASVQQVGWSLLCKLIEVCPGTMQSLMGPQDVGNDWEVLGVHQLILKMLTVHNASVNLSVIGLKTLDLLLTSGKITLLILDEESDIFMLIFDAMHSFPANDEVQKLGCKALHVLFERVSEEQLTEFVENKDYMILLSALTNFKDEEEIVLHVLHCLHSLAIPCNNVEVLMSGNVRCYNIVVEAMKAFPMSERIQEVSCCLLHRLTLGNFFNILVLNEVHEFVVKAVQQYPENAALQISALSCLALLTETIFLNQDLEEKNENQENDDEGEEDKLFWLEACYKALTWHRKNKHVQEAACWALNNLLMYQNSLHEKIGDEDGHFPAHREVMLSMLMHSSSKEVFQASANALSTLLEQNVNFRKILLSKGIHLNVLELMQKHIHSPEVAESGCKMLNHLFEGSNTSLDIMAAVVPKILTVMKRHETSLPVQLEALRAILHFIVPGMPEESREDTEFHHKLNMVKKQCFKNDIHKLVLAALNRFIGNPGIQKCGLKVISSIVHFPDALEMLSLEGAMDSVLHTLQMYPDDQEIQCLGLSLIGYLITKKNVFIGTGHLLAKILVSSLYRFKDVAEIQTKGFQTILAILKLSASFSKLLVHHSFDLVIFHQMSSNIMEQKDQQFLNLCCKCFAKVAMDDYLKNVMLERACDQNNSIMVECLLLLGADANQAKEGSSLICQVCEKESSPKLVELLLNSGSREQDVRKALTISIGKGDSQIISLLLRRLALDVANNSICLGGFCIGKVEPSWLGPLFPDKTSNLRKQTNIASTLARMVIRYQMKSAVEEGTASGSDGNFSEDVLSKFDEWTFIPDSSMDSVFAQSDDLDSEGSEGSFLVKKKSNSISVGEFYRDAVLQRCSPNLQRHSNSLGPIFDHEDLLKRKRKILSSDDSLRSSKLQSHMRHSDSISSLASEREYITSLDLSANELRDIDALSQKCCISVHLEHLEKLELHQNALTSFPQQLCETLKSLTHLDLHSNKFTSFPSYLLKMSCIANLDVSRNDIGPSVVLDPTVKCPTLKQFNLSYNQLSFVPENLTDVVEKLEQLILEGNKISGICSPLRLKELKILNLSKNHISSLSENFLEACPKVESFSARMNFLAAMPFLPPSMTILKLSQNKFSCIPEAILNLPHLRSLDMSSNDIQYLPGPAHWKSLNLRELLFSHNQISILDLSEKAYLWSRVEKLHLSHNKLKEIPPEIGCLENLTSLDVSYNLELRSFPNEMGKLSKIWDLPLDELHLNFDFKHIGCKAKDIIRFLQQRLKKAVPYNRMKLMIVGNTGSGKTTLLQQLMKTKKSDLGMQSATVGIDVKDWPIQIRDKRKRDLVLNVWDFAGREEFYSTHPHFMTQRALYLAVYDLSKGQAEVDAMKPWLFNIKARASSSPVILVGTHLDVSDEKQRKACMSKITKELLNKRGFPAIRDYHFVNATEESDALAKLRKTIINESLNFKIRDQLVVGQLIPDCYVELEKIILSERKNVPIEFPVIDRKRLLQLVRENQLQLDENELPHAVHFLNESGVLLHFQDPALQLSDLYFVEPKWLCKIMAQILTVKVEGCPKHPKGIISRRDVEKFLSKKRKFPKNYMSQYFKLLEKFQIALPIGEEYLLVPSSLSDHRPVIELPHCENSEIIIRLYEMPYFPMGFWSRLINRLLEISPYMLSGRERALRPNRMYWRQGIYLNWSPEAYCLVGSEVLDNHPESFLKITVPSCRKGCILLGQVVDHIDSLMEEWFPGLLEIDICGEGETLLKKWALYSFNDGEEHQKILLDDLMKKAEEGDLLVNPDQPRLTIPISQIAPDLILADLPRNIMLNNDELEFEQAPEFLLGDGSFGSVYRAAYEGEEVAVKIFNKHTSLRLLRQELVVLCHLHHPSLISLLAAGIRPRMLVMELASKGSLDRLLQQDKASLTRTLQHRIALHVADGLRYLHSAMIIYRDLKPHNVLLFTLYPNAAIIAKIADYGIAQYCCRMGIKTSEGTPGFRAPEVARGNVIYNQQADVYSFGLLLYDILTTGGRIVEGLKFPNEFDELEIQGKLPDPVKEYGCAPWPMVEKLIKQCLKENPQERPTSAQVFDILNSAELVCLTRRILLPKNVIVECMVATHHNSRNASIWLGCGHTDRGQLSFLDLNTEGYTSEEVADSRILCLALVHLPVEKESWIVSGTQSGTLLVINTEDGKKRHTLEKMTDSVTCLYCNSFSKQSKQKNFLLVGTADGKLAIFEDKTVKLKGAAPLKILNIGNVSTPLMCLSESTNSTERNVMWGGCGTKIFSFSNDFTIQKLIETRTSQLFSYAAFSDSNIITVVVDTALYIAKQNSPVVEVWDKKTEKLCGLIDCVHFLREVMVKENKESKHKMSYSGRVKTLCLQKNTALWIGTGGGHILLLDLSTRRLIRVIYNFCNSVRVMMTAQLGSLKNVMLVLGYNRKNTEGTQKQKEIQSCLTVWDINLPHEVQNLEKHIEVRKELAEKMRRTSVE

SMILES | Dmax [1] [%] | DC50 [2] [nM] | other results
COc1c(N2CCC(CN3CCN(CC4CCN(c5cc(-c6n[nH]c7cnc(OC8(C)CC8)cc67)ncn5)CC4)C[C@@H]3C)CC2)ccc2c1CN(C1CCC(=O)NC1=O)C2=O (stereo partly drawn) [Compound 271, 3-[4-methoxy-5-(4-{[(2S)-2-methyl-4-[(1-{6-[5-(1-methylcyclopropoxy)-1H-pyrazolo[3,4-c]pyridin-3-yl]pyrimidin-4-yl}piperidin-4-yl)methyl]piperazin-1-yl]methyl}piperidin-1-yl)-1-oxo-2,3-dihydro-1H-isoindol-2-yl]piperidine-2,6-dione] | 50 to 70 | < 10 | –
COc1c(N2CCC(CN3C[C@@H](C)N(CC4CCN(c5cc(-c6n[nH]c7ccc(OC8(C)CC8)cc67)ncn5)CC4)[C@@H](C)C3)CC2)ccc2c1CN(C1CCC(=O)NC1=O)C2=O (stereo partly drawn) [Compound 287, 3-[5-(4-{[(3R,5S)-3,5-dimethyl-4-[(1-{6-[5-(1-methylcyclopropoxy)-1H-indazol-3-yl]pyrimidin-4-yl}piperidin-4-yl)methyl]piperazin-1-yl]methyl}piperidin-1-yl)-4-methoxy-1-oxo-2,3-dihydro-1H-isoindol-2-yl]piperidine-2,6-dione] | 50 to 70 | < 10 | –
COc1c(N2CCC(CN3CCN(C[C@H]4CCN(c5cc(-c6n[nH]c7ccc(OC8(C)CC8)cc67)ncn5)C4)CC3)CC2)ccc2c1CN(C1CCC(=O)NC1=O)C2=O (stereo partly drawn) [Compound 303, 3-(4-methoxy-5-{4-[(4-{[(3R)-1-{6-[5-(1-methylcyclopropoxy)-1H-indazol-3-yl]pyrimidin-4-yl}pyrrolidin-3-yl]methyl}piperazin-1-yl)methyl]piperidin-1-yl}-1-oxo-2,3-dihydro-1H-isoindol-2-yl)piperidine-2,6-dione] | 50 to 70 | < 10 | –
C[C@@H]1CN(CC2CCN(c3ccc4c(c3F)CN(C3CCC(=O)NC3=O)C4=O)CC2)C[C@H](C)N1CC1CCN(c2cc(-c3n[nH]c4ccc(OC5(C)CC5)cc34)ncn2)CC1 (stereo partly drawn) [Compound 284, 3-[5-(4-{[(3R,5S)-3,5-dimethyl-4-[(1-{6-[5-(1-methylcyclopropoxy)-1H-indazol-3-yl]pyrimidin-4-yl}piperidin-4-yl)methyl]piperazin-1-yl]methyl}piperidin-1-yl)-4-fluoro-1-oxo-2,3-dihydro-1H-isoindol-2-yl]piperidine-2,6-dione] | 50 to 70 | < 10 | –
CC1(Oc2ccc3[nH]nc(-c4cc(N5CCC(CN6CCN(CC7CCN(c8c(F)cc9c(c8F)CN(C8CCC(=O)NC8=O)C9=O)CC7)CC6)CC5)ncn4)c3c2)CC1 (centres unmarked) [Compound 219, 3-[4,6-difluoro-5-[4-[[4-[[1-[6-[5-(1-methylcyclopropoxy)-1H-indazol-3-yl]pyrimidin-4-yl]-4-piperidyl]methyl]piperazin-1-yl]methyl]-1-piperidyl]-1-oxo-isoindolin-2-yl]piperidine-2,6-dione] | – | – | DC50 [3]: < 10 nM; Dmax [4]: 50 to 70%
C[C@H]1CN(c2cc(-c3[nH]nc4ccc(OC5(C)CC5)cc34)ncn2)CCN1CCN1CCN(CC2CCN(c3ccc4c(c3)CN(C3CCC(=O)NC3=O)C4=O)CC2)CC1 (stereo partly drawn) [Compound 65, 3-(5-{4-[(4-{2-[(2S)-2-methyl-4-{6-[5-(1-methylcyclopropoxy)-2H-indazol-3-yl]pyrimidin-4-yl}piperazin-1-yl]ethyl}piperazin-1-yl)methyl]piperidin-1-yl}-1-oxo-2,3-dihydro-1H-isoindol-2-yl)piperidine-2,6-dione] | – | – | Dmax (24 hours, read-out: **Endogenous WT Dmax (%)): ≥ 70%; DC50 (24 hours, read-out: *Endogenous WT DC50): < 10 nM
CC1(Oc2ccc3[nH]nc(-c4cc(N5CCN(C[C@H]6CC[C@H](OC7CCN(c8ccc9c(c8F)CN(C8CCC(=O)NC8=O)C9=O)CC7)CC6)C(C)(C)C5)ncn4)c3c2)CC1 (some centres unmarked) [Compound 381, 3-[4-fluoro-1-oxo-5-(4-{[(1r,4r)-4-[(2,2-dimethyl-4-{6-[5-(1-methylcyclopropoxy)-1H-indazol-3-yl]pyrimidin-4-yl}piperazin-1-yl)methyl]cyclohexyl]oxy}piperidin-1-yl)-2,3-dihydro-1H-isoindol-2-yl]piperidine-2,6-dione] | – | – | DC50 [3]: 10 to 50 nM; Dmax [4]: < 50%
